Values quoted from earlier work, collected in US11389412B2, “Curcuminoid chlorophyllin (CHL) compositions and methods of preparation and use” (InovoBiologic Inc., priority 2017, dated 2022).

Settings: composition of curcuminoid mixture and essential oil arturmerone, U.S. Pat. No. 7,883,728

bioavailability of curcumin in human, maximum: about 93 ng/g
SMILES: COc1cc(C=CC(=O)CC(=O)C=Cc2ccc(O)c(OC)c2)ccc1O [curcumin, 1,7bis (4-hydroxy-3-methoxy phenyl)-1,6 heptadiene-3,5-dione]
